Data reported in patent US6818646B2 (priority 2000, dated 2004).

Experiments:
[1] = In vivo testing for efficacy, procedure of Carter et al.
Protocol: Following the procedure disclosed by Carter et al., (Carter, A. J., Ballard, S. A., and Naylor, A. M.) in The Journal of Urology 1998, 160, 242-246, the compounds as listed in Table 7 were tested for in vivo efficacy, with results as tabulated below.

PDEV [2] = biological target: T1, PDEV (Homo sapiens, UniProt O76074); assay: PDE assay: inhibition of PDEV isolated from human tissue; type: biochemical; details: for IC50: PDEV inhibitory activity
T1 construct: PDEV was isolated from rabbit and human tissues according to the protocol described by Boolell et al; from tissue; host or cells: human tissue, homogenate supernatant fractionated on Mono Q
Protocol: (§1) Briefly, rabbit or human tissues were homogenized in an ice-cold buffer solution containing 20 mM HEPES (pH 7.2), 0.25M sucrose, 1 mM EDTA, and 1 mM phenylmethylsulphonyl fluoride (PMSF). The homogenates were centrifuged at 100,000 g for 60 minutes at 4° C. The supernatant was filtered through […] filter and loaded on a Pharmacia Mono Q anion exchange column (1 ml bed volume) that was equilibrated with 20 mM HEPES, 1 mM EDTA and 0.5 mM PMSF. After washing out unbound proteins, the enzymes were eluted with a linear gradient of 100-600 mM NaCl in the same buffer (35 to 50 ml total, depending on the tissue. Enzymes from the skeletal muscle, corpus cavernosum, retina, heart and platelet were eluted with 35, 40, 45, 50, and 50 ml respectively.) The column was run at a flow rate of 1 ml/min and 1 ml fractions were collected. The fractions comprising various PDE activities were pooled separately and used in later studies.
(§2) The assays were adapted to a 96-well format. The enzyme was assayed in 5 mM MgCl2, 15 mM Tris HCl (pH 7.4), 0.5 mg/ml bovine serum albumin, 1 μM cGMP or cAMP, 0.1 μCi [^3H]-cGMP or [^3H]-cAMP, and 2-10 μl of column elution. The total volume of the assay was 100 μl. The reaction mixture was incubated at 30° C. for 30 minutes. The reaction was stopped by boiling for 1 minute and then cooled down on ice. The resulting [^3H]5′-mononucleotides were further converted to uncharged [^3H]-nucleosides by adding 25 μl 1 mg/ml snake venom (Ophiophagus hannah) and incubating at 30° C. for 10 minute. The reaction was stopped by the addition of 1 ml Bio-Rad AG1-X2 resin slurry (1:3). All the charged nucleotides were bound by the resin and only uncharged [^3H]-nucleosides remained in the supernatant after centrifuging. An aliquot of 200 μl was taken and counted by liquid scintillation. PDE activity was expressed as pmol cyclic nucleotide hydrolyzed/min/ml of enzyme preparation.
(§3) Inhibitor studies were carried out in assay buffer with a final concentration of 10% DMSO.
(§4) The % inhibition of the maximum substrate conversion (by the enzyme in the absence of inhibitor) was calculated for each test compound concentration. Using GraphPad Prism's nonlinear regression analysis (sigmoidal dose response), the % inhibition vs log of the test compound concentration was plotted to determine the IC50. Under conditions where substrate concentration <<Km of the enzyme (Km=substrate concentration at which half of the maximal velocity of the enzyme is achieved), Ki is equivalent to the IC50 value.
(§5) Unless otherwise noted, PDEV inhibitory activities were measured using human tissue. The abbreviation “stereo” refers to the stereogenic configuration, the abbreviation “Rac” shall denote a racemic mixture.

PDEV [3] = biological target: T1, PDEV; assay: In vitro determination of Ki for phosphodiesterase inhibitors; type: biochemical; details: human tissue; given as 'Ki ='
Protocol: The assays were adapted to a 96-well format. Phosphodiesterase was assayed in 5 mM MgCl2, 15 mM Tris HCl (pH 7.4), 0.5 mg/ml bovine serum albumin, 30 nM ^3H-cGMP and test compound at various concentrations. The amount of enzyme used for each reaction was such that less than 15% of the initial substrate was converted during the assay period. For all measurements, the test compound was dissolved and diluted in 100% DMSO (2% DMSO in assay). The total volume of the assay was 100 μl. The reaction mixture was incubated at 30° C. for 90 minutes. The reaction was stopped by boiling for 1 minute and then immediately cooled by transfer to an ice bath. To each well was then added 25 μl 1 mg/ml snake venom (Ophiophagus hannah) and the reaction mixture incubating at 30° C. for 10 minute. The reaction was stopped by the addition of 1 ml Bio-Rad AG1-X2 resin slurry (1:3). An aliquot of 200 μl was taken and counted by liquid scintillation.
as §4, §5

PDEV [4] = biological target: PDEV (Oryctolagus cuniculus, UniProt G1SX67); assay: PDE assay: inhibition of PDEV isolated from rabbit tissue; type: biochemical; details: PDEV inhibitory activity, rabbit tissue (footnote a)
Protocol: as §1, §2, §3, §4, §5

SMILES | Efficacy [1] | IC50 (PDEV [2]) | Ki (PDEV [3]) | further results
COc1ccc(-c2cnc(N3Cc4c([nH]c5ccccc5c4=O)[C@H]3c3ccc4c(c3)CCO4)nc2)cc1 [Compound 66, (R)-1,2,3,4-Tetrahydro-2-[5-(4-methoxyphenyl)-pyrimidin-2-yl]-3-(2,4-dihydrobenzofuranyl)-9H-pyrrolo-[3,4-b]quinolin-9-one] | Active | 0.19 nM | – | –
O=c1c2c([nH]c3ccccc13)[C@@H](c1ccc3c(c1)CCO3)N(c1ncc(-c3ccccn3)cn1)C2 [Compound 65, (R)-1,2,3,4-Tetrahydro-2-[5-(2-pyridinyl)-pyrimidin-2-yl]-3-(2,3-dihydrobenzofuranyl)-9H-pyrrolo-[3,4-b]quinolin-9-one] | Active | 0.23 nM | – | –
Cc1ncc(-c2cnc(N3Cc4c([nH]c5ccccc5c4=O)C3c3ccc4c(c3)CCO4)nc2)n1C (stereo not drawn) [Compound 128, 3-(2,3-Dihydro-benzofuran-5-yl)-2-[5-(2,3-dimethyl-3H-imidazol-4-yl)-pyrimidin-2-yl]-1,2,3,4-tetrahydro-pyrrolo[3,4-β]quinolin-9-one] | – | – | 0.3 nM | –
O=c1c2c([nH]c3ccccc13)C(c1ccc3c(c1)CCO3)N(c1ccccn1)C2 (racemic) [Compound 129, 3-(2,3-Dihydro-benzofuran-5-yl)-2-pyridin-2-yl-1,2,3,4-tetrahydro-pyrrolo[3,4-b]quinolin-9-one] | – | – | 0.65 nM | –
Cl.O=C(OCc1ccncc1)N1Cc2c([nH]c3ccccc3c2=O)C1c1ccc2c(c1)OCO2 (racemic) [Compound 37, 1,2,3,4-Tetrahydro-2-[(4-pyridinyl)methyloxycarbonyl]-3-(3,4-methylenedioxyphenyl)-9H-pyrrolo-[3,4-b]quinolin-9-one, hydrochloride salt] | Active | 5.72 nM | – | –
O=c1c2c([nH]c3ccccc13)C(c1ccc3c(c1)OCO3)N(C(=S)n1ccnc1)C2 (racemic) [Compound 18, 1,2,3,4-Tetrahydro-2-(imidazol-1-yl)thiocarbonyl-3-(3,4-methylenedioxyphenyl)-9H-pyrrolo-[3,4-b]quinolin-9-one] | – | – | – | melting point: 211 to 215 °C (dec.); inhibition at 10 µM (PDEV [2]; 10 μM test compound): 54%
COc1ccc(-c2cnc(N3Cc4c([nH]c5ccccc5c4=O)[C@H]3c3ccc4c(c3)OCO4)nc2)cc1OC [Compound 36, (R)-1,2,3,4-Tetrahydro-2-[5-(3,4-dimethoxyphenyl)-pyrimidin-2-yl]-3-(3,4-methylenedioxyphenyl)-9H-pyrrolo-[3,4-b]quinolin-9-one] | Active | 0.075 nM | – | –
COc1ccc(C2NCc3c2[nH]c2ccccc2c3=O)cc1OC (racemic) [Compound 12, 1,2,3,4-Tetrahydro-3-(3,4-dimethoxyphenyl)-9H-pyrrolo-[3,4-b]quinolin-9-one] | – | – | – | melting point: 223 to 225 °C; IC50 (PDEV [4]): 549 nM
Cc1ncc(-c2cnc(N3Cc4c(nc5ccccc5c4O)C3c3ccc4c(c3)CCO4)nc2)n1Cc1ccccc1 (racemic) [Compound 127, 2-[5-(3-Benzyl-2-methyl-3H-imidazol-4-yl)-pyrimidin-2-yl]-3-(2,3-dihydro-benzofuran-5-yl)-1,2,3,4-tetrahydro-pyrrolo[3,4-b]quinolin-9-one] | – | – | 0.14 nM | –
Oc1c2c(nc3ccccc13)C(c1ccc3occc3c1)N(c1ncc(-c3ccccn3)cn1)C2 (racemic) [Compound 126, 3-Benzofuran-5-yl-2-(5-pyridin-2-yl-pyrimidin-2-yl)-1,2,3,4-tetrahydro-pyrrolo[3,4-b]quinolin-9-one] | – | – | 0.138 nM | –
COc1ccc(-c2cnc(N3Cc4c([nH]c5ccccc5c4=O)C3c3ccc4c(c3)OCO4)nc2)cc1 (racemic) [Compound 2, 1,2,3,4-Tetrahydro-2-[5-(4-methoxyphenyl)-pyrimidin-2-yl]-3-(3,4-methylene-dioxyphenyl)-9H-pyrrolo-[3,4-b]quinolin-9-one] | – | 0.191 nM | – | melting point: 325 to 327 °C
